Consider 14 substances from patent publication US20140235536A1, “INJECTABLE SOLUTION AT PH 7 COMPRISING AT LEAST ONE BASAL INSULIN THE ISOELECTRIC POINT OF WHICH IS COMPRISED IN 5.8 AND 8.5 AND AN ANIONIC COMPOUND BEARING CARBOXYLATE CHARGES AND HYDROPHOBIC RADICALS” (ADOCIA, priority 2013, published 2014).

Where two headings read alike, the source gives them in different places.

In data set [1] the target is T1, insulin glargine (Homo sapiens, UniProt P01308, INS54RR/N110G).
T1 construct: substitution of asparagine residue A21 with a glycine residue; elongation of the C-terminal of the B chain of human insulin with two arginine residues; purchased SANOFI-AVENTIS (Lantus®); ELI LILLY (Humalog®)
T1 sequence (P01308 90-110 N110G limits assumed): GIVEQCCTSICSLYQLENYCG
T1 sequence (P01308 25-56 limits assumed, stated change not applied): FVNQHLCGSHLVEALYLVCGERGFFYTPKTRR
As to the kind of experiment: Precipitation of hydrophobized anionic molecule/insulin glargine/prandial insulin compositions in PBS/BSA (examples B15-B17). In kind it is physicochemical. On the procedure:
The PBS/BSA mixture simulates the composition of the subcutaneous medium.
(§1) Centrifugation at 4000 rpm is carried out in order to separate the precipitate from the supernatant. The insulin glargine is then assayed in the supernatant by RP-HPLC.
This composition is added to 2 ml of PBS containing 20 mg/ml of BSA. The PBS/BSA mixture simulates the composition of the subcutaneous medium. […] Centrifugation at 4000 rpm is carried out in order to separate the precipitate from the supernatant. The insulin glargine is then assayed in the supernatant by RP-HPLC.

Data set [2] has as its target insulin glargine and prandial insulin (Homo sapiens, UniProt P01308, INS54RR/N110G).
Experimental: 0.25 ml of the insulin glulisine solution of example B3 is added to 0.75 ml of the solution of hydrophobized anionic molecule AA1/insulin glargine prepared according to the protocol described in example B6(a), so as to form 1 ml of a composition at pH 7. […] This clear solution is filtered through a 0.22 μm filter and then placed at +4° C.
0.25 ml of the insulin lispro solution of example B2 is added to 0.75 ml of the solution of hydrophobized anionic molecule AA1/insulin glargine prepared according to the protocol described in example B6(a), so as to form 1 ml of a composition at pH 7. […] This clear solution is filtered through a 0.22 μm filter and then placed at +4° C.
0.25 ml of the insulin aspart solution of example B1 is added to 0.75 ml of the solution of hydrophobized anionic molecule AA1/insulin glargine prepared in example B6(a), so as to form 1 ml of a composition at pH 7. […] This clear solution is filtered through a 0.22 μm filter and then placed at +4° C.
0.4 ml of the insulin lispro solution of example B2 is added to 0.6 ml of the solution of hydrophobized anionic molecule AA1/insulin glargine prepared in example 86(a), so as to form 1 ml of a composition at pH 7. […] This clear solution is filtered through a 0.22 μm filter and then placed at +4° C.
0.6 ml of the insulin lispro solution of example B2 is added to 0.4 ml of the solution of hydrophobized anionic molecule AA1/insulin glargine prepared in example B6(a), so as to form 1 ml of a composition at pH 7. […] This clear solution is filtered through a 0.22 μm filter and then placed at +4° C.
Compositions are prepared by mixing 0.75 ml of the hydrophobized anionic molecule AA1/insulin glargine solution prepared according to the protocol of example B6(a) with 0.25 ml of a prandial insulin, so as to form 1 ml of hydrophobized anionic molecule AA1/insulin glargine/prandial insulin composition (containing 7.5 mg/ml of hydrophobized anionic molecule AA1, 75 IU/ml of insulin glargine and 25 IU/ml of prandial insulin).
Data set [3] deals with T1, insulin glargine. Description: Precipitation of hydrophobized anionic molecule/insulin glargine composition in PBS/BSA mixture simulating the subcutaneous medium (examples B13, B14). In kind it is physicochemical. The note with it: 1 ml composition (10 mg/ml molecule, 100 IU/ml insulin glargine) added to 2 ml PBS containing 20 mg/ml BSA. On the procedure:
1 ml of the insulin glargine solution of example B4 is added to 2 ml of a solution of PBS (phosphate buffered saline) containing 20 mg/ml of BSA (bovine serum albumin). The PBS/BSA mixture simulates the composition of the subcutaneous medium.
Centrifugation at 4000 rpm is carried out in order to separate the precipitate from the supernatant. The insulin glargine is then assayed in the supernatant by reverse-phase liquid chromatography (RP-HPLC).
1 ml of hydrophobized anionic molecule AA1/insulin glargine solution prepared in example B6(a) is added to 2 ml of a solution of PBS containing 20 mg/ml of BSA. The PBS/BSA mixture simulates the composition of the subcutaneous medium.
as §1
Solubilization and precipitation tests identical to those described in examples B6 and B14 were carried out with other hydrophobized anionic molecules at the same concentration of 10 mg/ml of hydrophobized anionic molecule for 100 IU/ml of insulin glargine solution.

For data set [4] the following is noted: background statement on marketed insulins; cited from earlier work.
Data set [5] has as its target T1, insulin glargine. The note with it: alone versus with the cyclodextrin, cited from earlier work.
Setting [6] is: 7.5 mg/ml AA1, 75 IU/ml insulin glargine, 25 IU/ml prandial insulin, added to 2 ml PBS containing 20 mg/ml BSA.
Where [7] appears, read: insulin glargine/insulin lispro 75/25 composition at pH 7, 1 ml added to 2 ml PBS containing 20 mg/ml BSA.

For the substance “Human insulin (ActRapid ®): commercial 100 IU/ml solution of human insulin (NOVO NORDISK) [reference compound]”, in the data set with insulin glargine [1] (setting [6]), the Insulin glargine precipitation entry is “Yes”. In data set [2], the “Solubilization of insulin glargine/prandial insulin 75/25” value was “Yes”.

In the case of “Insulin aspart (NovoLog ®): commercial 100 IU/ml solution of insulin aspart, fast-acting insulin analog (NOVO NORDISK) [reference compound]”, the Insulin glargine precipitation entry with insulin glargine [1] (setting [6]) was “Yes”. In data set [2], the “Solubilization of insulin glargine/prandial insulin 75/25” value is “Yes”.

With “Insulin glulisine (Apidra ®): commercial 100 IU/ml solution of insulin glulisine, fast-acting insulin analog (SANOFI-AVENTIS) [reference compound]”, in the data set with insulin glargine [1] (setting [6]), the Insulin glargine precipitation entry is reported as “Yes”.

Regarding “Insulin lispro (Humalog ®): commercial 100 IU/ml solution of insulin lispro, fast-acting insulin analog (ELI LILLY) [reference compound]”, the Insulin glargine precipitation result in the data set with insulin glargine [1] (setting [6]) is listed as “Yes”. In data set [2], the “Solubilization of insulin glargine/prandial insulin 75/25” value is reported as “Yes”.

For the substance “Sodium Maltooctaosemethylcarboxylate Functionalized with Cholesteryl Leucinate [AA5]”, the Insulin glargine precipitation entry at insulin glargine [1] (setting [7]) and at insulin glargine [3] was “Yes” throughout.

Consider “Sodium Maltopentaosemethylcarboxylate Functionalized with Cholesteryl Leucinate [AA4]”, for which the Insulin glargine precipitation entry at insulin glargine [1] (setting [7]) and on insulin glargine [3] was “Yes” each time.

In the case of “Sodium Maltotriosemethylcarboxylate Functionalized with 3,7-dimethyl-octanoyl Phenylalaninate [AA8]”, the Insulin glargine precipitation entry on insulin glargine [1] (setting [7]) and on insulin glargine [3] was “Yes” each time.

As for “Sodium Maltotriosemethylcarboxylate Functionalized with (±)-α-tocopheryl Leucinate [AA9]”, the Insulin glargine precipitation result on insulin glargine [1] (setting [7]) and at insulin glargine [3] was “Yes” in each case.

On to “Sodium Maltotriosemethylcarboxylate Functionalized with Cholesteryl 2-aminoethylcarbamate [AA7]”, for which the Insulin glargine precipitation result on insulin glargine [1] (setting [7]) and on insulin glargine [3] was “Yes” throughout.

As to “Sodium Maltotriosemethylcarboxylate Functionalized with Cholesteryl Leucinate [AA1]”, the Insulin glargine precipitation result on insulin glargine [3] is “Yes”.

Consider “Sodium Maltotriosemethylcarboxylate Functionalized with Cholesteryl Leucinate [AA3]”, for which the Insulin glargine precipitation entry on insulin glargine [1] (setting [7]) is “Yes”.

With “Sodium Maltotriosemethylcarboxylate Functionalized with Dilauryl Aspartate [AA6]”, the Insulin glargine precipitation result at insulin glargine [1] (setting [7]) and at insulin glargine [3] was “Yes” in each case.

Regarding insulin glargine, the “duration of action / hypoglycemic effect” value in data set [4] was 24 h. Moreover, the “solubility of insulin glargine” value with insulin glargine [5] (pH 7.4, phosphate buffer) was 5 µM; with insulin glargine [5] (pH 9.5), 750 µM.

Take “sulfobutyl ether-β-cyclodextrin [SVE4-β-CYD]”: the “solubility of insulin glargine” value at insulin glargine [5] (pH 7.4, phosphate buffer) was 8 µM; at insulin glargine [5] (pH 9.5), 1250 µM.
